Data taken from patent EP4467141A1, “PYRAZOLO-QUINOLINES AS SELECTIVE INHIBITORS OF GENOTOXIC STRESS-INDUCED IKK/NF- KB PATHWAYS FOR CANCER THERAPY” (Max-Delbrück-Centrum für Molekulare Medizin in der …, priority 2023, dated 2024).

Legend:
Assay in all cases: Kinase panel study
Assay type in all cases: biochemical
Conditions in all cases: read-out: Percentage of inhibition; for inhibition at 1 µM: 1000nM; for inhibition at 10 µM: 10000nM
EPHA8 = biological target: T1, EPHA8 (Homo sapiens, UniProt P29322)
T1 construct: purchased Thermo Fisher Scientific
T1 sequence (P29322 28-1005): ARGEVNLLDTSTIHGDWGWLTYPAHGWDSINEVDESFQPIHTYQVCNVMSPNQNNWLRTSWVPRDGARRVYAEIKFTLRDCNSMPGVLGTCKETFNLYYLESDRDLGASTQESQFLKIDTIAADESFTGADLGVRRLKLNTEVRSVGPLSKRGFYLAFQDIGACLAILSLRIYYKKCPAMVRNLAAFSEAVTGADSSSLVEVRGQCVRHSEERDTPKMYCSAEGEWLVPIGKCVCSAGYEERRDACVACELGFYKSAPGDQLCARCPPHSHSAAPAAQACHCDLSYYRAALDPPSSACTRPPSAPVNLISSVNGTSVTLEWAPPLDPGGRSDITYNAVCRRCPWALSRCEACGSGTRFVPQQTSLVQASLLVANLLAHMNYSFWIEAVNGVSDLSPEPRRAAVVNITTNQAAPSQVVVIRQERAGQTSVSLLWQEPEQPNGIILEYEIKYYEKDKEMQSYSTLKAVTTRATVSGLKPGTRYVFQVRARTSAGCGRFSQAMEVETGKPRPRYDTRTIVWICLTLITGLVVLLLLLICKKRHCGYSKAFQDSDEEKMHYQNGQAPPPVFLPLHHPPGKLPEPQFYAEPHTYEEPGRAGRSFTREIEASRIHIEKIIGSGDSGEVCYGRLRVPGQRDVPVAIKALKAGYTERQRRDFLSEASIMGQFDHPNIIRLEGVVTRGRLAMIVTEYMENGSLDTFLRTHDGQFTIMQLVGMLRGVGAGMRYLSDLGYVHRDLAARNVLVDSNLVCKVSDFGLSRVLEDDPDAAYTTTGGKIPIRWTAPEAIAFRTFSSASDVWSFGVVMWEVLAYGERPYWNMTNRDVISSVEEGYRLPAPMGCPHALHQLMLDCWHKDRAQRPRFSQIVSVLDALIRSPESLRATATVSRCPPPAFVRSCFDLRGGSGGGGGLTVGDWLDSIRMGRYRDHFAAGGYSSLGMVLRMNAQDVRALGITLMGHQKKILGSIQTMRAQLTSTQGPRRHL
In short: (§1)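 Outsourced panel screen. Format: ZLyte or Adapta, run per the manufacturer's procedures. Read-out: inhibition (%) at a single dose of 10 µM or 1 µM; IC50s also generated.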

CDK1/cyclin B = biological target: T2, CDK1/cyclin B (Homo sapiens, UniProt P06493)
T2 construct: purchased Thermo Fisher Scientific
T2 sequence (P06493 whole entry): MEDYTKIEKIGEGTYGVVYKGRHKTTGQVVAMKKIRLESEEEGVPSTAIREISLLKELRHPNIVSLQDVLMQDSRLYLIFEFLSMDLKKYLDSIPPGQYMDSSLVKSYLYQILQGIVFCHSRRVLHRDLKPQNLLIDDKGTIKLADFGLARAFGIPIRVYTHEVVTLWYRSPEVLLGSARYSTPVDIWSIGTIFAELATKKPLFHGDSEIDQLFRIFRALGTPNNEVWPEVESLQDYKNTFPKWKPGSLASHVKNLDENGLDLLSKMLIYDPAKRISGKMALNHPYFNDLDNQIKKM
T2 sequence (P14635 whole entry partner): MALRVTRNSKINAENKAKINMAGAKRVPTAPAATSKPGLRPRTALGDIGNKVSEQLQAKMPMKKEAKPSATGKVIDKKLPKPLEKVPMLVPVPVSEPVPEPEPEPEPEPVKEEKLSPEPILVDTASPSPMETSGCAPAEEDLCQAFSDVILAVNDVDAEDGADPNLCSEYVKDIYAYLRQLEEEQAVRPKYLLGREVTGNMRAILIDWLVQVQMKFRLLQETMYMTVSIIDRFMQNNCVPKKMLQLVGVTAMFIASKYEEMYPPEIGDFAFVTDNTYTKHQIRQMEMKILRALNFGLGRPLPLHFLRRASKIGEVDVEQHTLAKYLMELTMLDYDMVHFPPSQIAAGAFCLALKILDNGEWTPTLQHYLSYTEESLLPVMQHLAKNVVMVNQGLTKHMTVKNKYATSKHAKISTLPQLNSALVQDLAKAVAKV
In short: as §1

PRKCZ (PKC zeta) = biological target: T3, PRKCZ (PKC zeta) (Homo sapiens, UniProt Q05513)
T3 construct: purchased Thermo Fisher Scientific
T3 sequence (Q05513 1-592): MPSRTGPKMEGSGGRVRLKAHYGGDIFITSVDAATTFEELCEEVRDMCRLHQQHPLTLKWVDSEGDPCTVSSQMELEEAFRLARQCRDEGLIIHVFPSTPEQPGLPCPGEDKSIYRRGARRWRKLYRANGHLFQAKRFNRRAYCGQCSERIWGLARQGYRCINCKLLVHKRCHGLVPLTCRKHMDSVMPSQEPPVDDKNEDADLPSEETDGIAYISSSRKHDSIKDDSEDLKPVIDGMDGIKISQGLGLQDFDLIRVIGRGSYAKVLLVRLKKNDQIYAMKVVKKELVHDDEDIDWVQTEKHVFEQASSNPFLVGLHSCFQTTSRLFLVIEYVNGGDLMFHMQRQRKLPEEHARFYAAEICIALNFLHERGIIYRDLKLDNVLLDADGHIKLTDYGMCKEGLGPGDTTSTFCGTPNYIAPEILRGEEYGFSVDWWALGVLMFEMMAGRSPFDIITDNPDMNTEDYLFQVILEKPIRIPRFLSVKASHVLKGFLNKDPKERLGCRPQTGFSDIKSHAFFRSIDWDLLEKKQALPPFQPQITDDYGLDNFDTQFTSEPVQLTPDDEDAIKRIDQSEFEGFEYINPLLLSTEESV
In short: as §1

PDGFRA D842V = biological target: T4, PDGFRA D842V (Homo sapiens, UniProt P16234, D842V)
T4 construct: purchased Thermo Fisher Scientific
T4 sequence (P16234 24-1089 D842V): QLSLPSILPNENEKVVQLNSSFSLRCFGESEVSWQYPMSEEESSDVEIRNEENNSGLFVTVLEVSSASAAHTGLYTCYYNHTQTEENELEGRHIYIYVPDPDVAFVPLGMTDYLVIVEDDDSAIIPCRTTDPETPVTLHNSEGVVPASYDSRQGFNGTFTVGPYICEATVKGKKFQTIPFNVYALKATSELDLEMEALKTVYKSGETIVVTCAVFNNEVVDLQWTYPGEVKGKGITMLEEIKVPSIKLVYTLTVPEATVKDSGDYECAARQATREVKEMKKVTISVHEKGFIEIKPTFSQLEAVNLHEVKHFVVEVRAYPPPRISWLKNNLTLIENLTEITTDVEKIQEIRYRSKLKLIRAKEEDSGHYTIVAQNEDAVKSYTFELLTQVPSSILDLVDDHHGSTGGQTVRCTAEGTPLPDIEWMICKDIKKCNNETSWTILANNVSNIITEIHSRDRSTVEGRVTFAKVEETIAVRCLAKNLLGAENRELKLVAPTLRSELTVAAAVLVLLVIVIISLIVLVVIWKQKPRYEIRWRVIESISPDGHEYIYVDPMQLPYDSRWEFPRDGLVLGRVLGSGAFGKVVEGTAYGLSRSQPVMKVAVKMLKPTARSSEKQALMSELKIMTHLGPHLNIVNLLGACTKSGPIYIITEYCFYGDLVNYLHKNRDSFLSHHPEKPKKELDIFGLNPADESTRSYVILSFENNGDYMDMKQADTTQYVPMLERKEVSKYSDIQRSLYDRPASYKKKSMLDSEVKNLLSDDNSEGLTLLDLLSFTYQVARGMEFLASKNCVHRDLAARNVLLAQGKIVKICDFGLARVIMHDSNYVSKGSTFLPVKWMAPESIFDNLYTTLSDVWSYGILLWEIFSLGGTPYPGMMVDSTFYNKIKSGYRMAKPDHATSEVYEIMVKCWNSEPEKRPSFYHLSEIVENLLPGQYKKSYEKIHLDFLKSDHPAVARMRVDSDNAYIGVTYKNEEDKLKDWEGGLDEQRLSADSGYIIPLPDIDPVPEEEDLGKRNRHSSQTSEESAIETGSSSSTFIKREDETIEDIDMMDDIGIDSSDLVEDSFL
In short: as §1

FER = biological target: T5, FER (Homo sapiens, UniProt P16591)
T5 construct: purchased Thermo Fisher Scientific
T5 sequence (P16591 whole entry): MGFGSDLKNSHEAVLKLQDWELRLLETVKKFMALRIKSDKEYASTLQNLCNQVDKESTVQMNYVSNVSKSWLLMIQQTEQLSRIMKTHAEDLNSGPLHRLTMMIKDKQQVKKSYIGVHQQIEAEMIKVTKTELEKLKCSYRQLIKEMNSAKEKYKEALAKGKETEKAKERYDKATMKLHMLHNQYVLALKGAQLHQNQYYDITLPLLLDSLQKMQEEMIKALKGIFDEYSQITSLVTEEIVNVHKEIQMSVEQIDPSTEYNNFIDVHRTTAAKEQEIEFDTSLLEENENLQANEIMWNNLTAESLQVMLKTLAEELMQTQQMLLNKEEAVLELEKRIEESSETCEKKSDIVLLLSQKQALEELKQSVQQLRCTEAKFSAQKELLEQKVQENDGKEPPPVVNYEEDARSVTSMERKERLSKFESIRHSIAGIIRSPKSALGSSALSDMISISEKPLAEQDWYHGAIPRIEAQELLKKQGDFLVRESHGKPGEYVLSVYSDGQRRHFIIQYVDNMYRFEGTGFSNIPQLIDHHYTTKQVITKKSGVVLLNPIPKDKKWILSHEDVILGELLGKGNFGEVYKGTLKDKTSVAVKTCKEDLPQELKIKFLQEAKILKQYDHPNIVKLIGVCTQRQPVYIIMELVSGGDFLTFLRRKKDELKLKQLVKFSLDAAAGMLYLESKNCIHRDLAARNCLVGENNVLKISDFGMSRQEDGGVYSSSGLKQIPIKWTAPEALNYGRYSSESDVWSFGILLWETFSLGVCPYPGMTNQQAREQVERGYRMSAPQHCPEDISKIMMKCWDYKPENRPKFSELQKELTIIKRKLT
In short: as §1

Row | Compound | inhibition at 1 µM (EPHA8) [%] | inhibition at 10 µM (EPHA8) [%] | inhibition at 1 µM (CDK1/cyclin B) [%] | inhibition at 10 µM (CDK1/cyclin B) [%] | inhibition at 1 µM (PRKCZ (PKC zeta)) [%] | inhibition at 10 µM (PRKCZ (PKC zeta)) [%] | inhibition at 1 µM (PDGFRA D842V) [%] | inhibition at 10 µM (PDGFRA D842V) [%] | inhibition at 1 µM (FER) [%] | inhibition at 10 µM (FER) [%]
1 | COc1ccc2c(c1OC)c(=O)n1c3ccc(O)cc3c3ccnc2c31 [MW01, 5-Hydroxy-10,11-dimethoxy-9H-benzo[c]indolo[3,2,1-ij][1,5]naphthyridin-9-one] | 4 | 21 | 20 | 46 | 18 | 10 | 3 | 35 | 11 | 25
2 | COc1ccc2cc3c(N)nn(C(=O)c4cccc(N(C)C)c4)c3nc2c1 [MW05, (3-Amino-7-methoxypyrazolo[3,4-b]quinolin-1-yl)-[3-(dimethylamino)phenyl]methanone] | -1 | -9 | 19 | 57 | 16 | -4 | -4 | -2 | 7 | 0
